Reference: publication PMC12250965, “Design and Synthesis of Sulfonium and Selenonium Derivatives Bearing 3′,5′-O-Benzylidene Acetal Side Chain Structure as Potent α-Glucosidase Inhibitors” (Molecules, 2025)
Read-outs that look alike come from different tables or passages of the source.

What was measured:
[1] = biological target: rat intestinal maltase; test: In vitro α-glucosidase inhibition assay, rat intestinal maltase; format: biochemical; settings: rat small intestinal brush border membrane vesicles; maltose substrate; mean ± SD (n = 3); read-out: IC50 against maltase
Protocol: (§1) The testing method previously described was modified and used. Thus, rat small intestinal brush border membrane vesicles were first prepared, and its suspension in 0.1 M maleate buffer (pH = 6.0) was used as small intestinal α-glucosidases of maltase and sucrase. A test compound was dissolved in dimethylsulfoxide (DMSO), and the resulting solution was diluted with 0.1 M maleate buffer to prepare the test compound solution (concentration of DMSO: 10%). The substrate solution in maleate buffer ([…], 50 μL), a test compound solution (25 μL), and the enzyme solution (25 μL) were mixed and incubated at 37 °C for 30 min. After incubation, the solution was immediately heated by boiling water for 2 min to stop the reaction, and the solution was mixed with water (150 μL). Glucose concentration was determined by the glucose-oxidase method. […] The IC50 value was determined graphically by a plot of percent inhibition versus log of the test compound.

[2] = biological target: T1, rat intestinal sucrase (Rattus norvegicus, UniProt P23739); test: In vitro α-glucosidase inhibition assay, rat intestinal sucrase; format: biochemical
T1 construct: rat small intestinal brush border membrane vesicles were first prepared; from tissue; host or cells: rat small intestine, brush border membrane vesicles
Protocol: as §1

[3] = rat small intestinal brush border membrane vesicles, sucrose substrate, mean ± SD (n = 3), read-out: IC50 against sucrase

T1 sequence (P23739 whole entry): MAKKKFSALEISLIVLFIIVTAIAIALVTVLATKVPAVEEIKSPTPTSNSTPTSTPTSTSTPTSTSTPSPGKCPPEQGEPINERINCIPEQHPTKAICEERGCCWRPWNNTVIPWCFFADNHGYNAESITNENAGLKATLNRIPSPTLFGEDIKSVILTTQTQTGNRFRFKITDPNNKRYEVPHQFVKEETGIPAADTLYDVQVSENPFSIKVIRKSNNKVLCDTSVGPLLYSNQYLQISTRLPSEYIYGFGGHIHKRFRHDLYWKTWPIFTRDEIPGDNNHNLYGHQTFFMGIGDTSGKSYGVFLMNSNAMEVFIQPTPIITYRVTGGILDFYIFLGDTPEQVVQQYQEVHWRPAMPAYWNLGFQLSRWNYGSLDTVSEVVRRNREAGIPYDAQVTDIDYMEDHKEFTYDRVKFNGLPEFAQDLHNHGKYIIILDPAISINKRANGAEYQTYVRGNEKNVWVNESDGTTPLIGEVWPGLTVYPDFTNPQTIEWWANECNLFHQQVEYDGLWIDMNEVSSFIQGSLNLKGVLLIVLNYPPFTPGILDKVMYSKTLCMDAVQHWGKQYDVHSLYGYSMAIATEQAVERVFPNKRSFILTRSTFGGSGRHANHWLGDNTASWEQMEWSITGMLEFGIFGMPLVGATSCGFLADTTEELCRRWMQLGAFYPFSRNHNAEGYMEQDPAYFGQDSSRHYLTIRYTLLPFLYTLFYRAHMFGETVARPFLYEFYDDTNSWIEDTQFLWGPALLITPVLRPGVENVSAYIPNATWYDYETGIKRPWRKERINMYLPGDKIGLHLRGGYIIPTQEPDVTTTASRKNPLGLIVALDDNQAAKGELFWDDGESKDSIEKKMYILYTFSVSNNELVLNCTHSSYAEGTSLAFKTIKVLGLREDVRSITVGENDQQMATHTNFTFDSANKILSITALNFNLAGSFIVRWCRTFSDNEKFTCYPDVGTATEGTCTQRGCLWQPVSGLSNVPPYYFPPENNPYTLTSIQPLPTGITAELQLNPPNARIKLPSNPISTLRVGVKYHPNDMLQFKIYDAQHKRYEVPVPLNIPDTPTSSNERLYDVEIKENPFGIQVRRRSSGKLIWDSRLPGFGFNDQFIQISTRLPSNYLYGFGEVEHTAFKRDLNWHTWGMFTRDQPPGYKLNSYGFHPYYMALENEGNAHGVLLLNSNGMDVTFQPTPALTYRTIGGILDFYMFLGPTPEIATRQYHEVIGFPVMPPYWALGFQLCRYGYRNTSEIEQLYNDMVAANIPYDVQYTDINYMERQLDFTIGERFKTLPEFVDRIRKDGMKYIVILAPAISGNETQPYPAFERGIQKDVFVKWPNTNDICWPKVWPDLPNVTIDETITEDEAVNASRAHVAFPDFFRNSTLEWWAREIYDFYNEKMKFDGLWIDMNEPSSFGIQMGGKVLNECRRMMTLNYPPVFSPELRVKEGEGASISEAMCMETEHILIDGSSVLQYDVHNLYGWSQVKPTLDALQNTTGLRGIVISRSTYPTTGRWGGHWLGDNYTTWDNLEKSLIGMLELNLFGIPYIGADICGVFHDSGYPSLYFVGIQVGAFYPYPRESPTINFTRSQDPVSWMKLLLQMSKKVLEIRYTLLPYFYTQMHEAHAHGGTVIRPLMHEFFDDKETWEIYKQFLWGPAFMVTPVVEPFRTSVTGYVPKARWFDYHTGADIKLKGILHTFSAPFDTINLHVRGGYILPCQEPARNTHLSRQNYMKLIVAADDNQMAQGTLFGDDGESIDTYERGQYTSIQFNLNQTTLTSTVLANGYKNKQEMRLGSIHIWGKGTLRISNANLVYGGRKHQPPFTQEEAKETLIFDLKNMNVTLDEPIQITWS

Work on `OC[C@@H]1[C@@H](O)[C@H](O)C[Se@+]1C[C@@H](O)[C@H]1OC(c2ccccc2F)OC[C@H]1O` (stereo partly drawn) [20n, (1S,2R,3S,4S)-1-((2S)-2-((4S,5R)-2-(2-Fluorophenyl)-5-hydroxy-1,3-dioxan-4-yl)-2-hydroxyethyl)-3,4-dihydroxy-2-(hydroxymethyl)tetrahydro-1H-selenophen-1-ium chloride] yielded an IC50 [1] of 3750 ± 580 nM and an IC50 [2] of 200 ± 60 nM.
For `OCC1C(O)C(O)C[S+]1CC(O)C1OC(c2ccccc2Br)OCC1O` [19k, 1,4-Dideoxy-1,4-[(R)-(5-deoxy-1,3-O-(o-bromobenzylidene)-D-arabinitol-5-yl)episulfoniumylidene]-D-arabinitol chloride], the IC50 [1] was 1900 ± 80 nM and the IC50 [2, 3] was 1100 ± 20 nM.
Compound `OCC1C(O)C(O)C[S+]1CC(O)C1OC(c2ccccc2-c2ccccc2)OCC1O` [19r, 1,4-Dideoxy-1,4-[(R)-(5-deoxy-1,3-O-(2-phenylbenzylidene)-D-arabinitol-5-yl)episulfoniumylidene]-D-arabinitol chloride] has an IC50 [1] of 10500 ± 1100 nM and an IC50 [2, 3] of 3300 ± 220 nM.
For `OCC1C(O)C(O)C[S+]1CC(O)C1OC(c2cccc(F)c2Cl)OCC1O` [19d, 1,4-Dideoxy-1,4-[(R)-(5-deoxy-1,3-O-(2-chloro-3-fluorobenzylidene)-D-arabinitol-5-yl)episulfoniumylidene]-D-arabinitol chloride], the IC50 [1] was 1000 ± 50 nM and the IC50 [2, 3] was 700 ± 130 nM.
Compound `OCC1C(O)C(O)C[S+]1CC(O)C1OC(c2cc(Cl)cc(Cl)c2)OCC1O` [19g, 1,4-Dideoxy-1,4-[(R)-(5-deoxy-1,3-O-(3,5-dichlorobenzylidene)-D-arabinitol-5-yl)episulfoniumylidene]-D-arabinitol chloride] has an IC50 [1] of 4900 ± 250 nM and an IC50 [2, 3] of 5500 ± 620 nM.
`OC[C@@H]1[C@@H](O)[C@H](O)C[Se@+]1C[C@@H](O)[C@H]1OC(c2ccc(Br)cc2)OC[C@H]1O` (stereo partly drawn) [20m, (1S,2R,3S,4S)-1-((2S)-2-((4S,5R)-2-(4-Bromophenyl)-5-hydroxy-1,3-dioxan-4-yl)-2-hydroxyethyl)-3,4-dihydroxy-2-(hydroxymethyl)tetrahydro-1H-selenophen-1-ium chloride] showed an IC50 [1] of 70 ± 30 nM and an IC50 [2] of 200 ± 50 nM.
`OC[C@@H]1[C@@H](O)[C@H](O)C[Se@+]1C[C@@H](O)[C@H]1OC(c2cccc(Br)c2)OC[C@H]1O` (stereo partly drawn) [20l, (1S,2R,3S,4S)-1-((2S)-2-((4S,5R)-2-(3-Bromophenyl)-5-hydroxy-1,3-dioxan-4-yl)-2-hydroxyethyl)-3,4-dihydroxy-2-(hydroxymethyl)tetrahydro-1H-selenophen-1-ium chloride] was tested, and the IC50 [1] was 690 ± 50 nM and the IC50 [2] was 210 ± 20 nM.
`OC[C@@H]1[C@@H](O)[C@H](O)C[Se@+]1C[C@@H](O)[C@H]1OC(c2cccc(F)c2Cl)OC[C@H]1O` (stereo partly drawn) [20d, (1S,2R,3S,4S)-1-((2S)-2-((4S,5R)-2-(2-Chloro-3-fluorophenyl)-5-hydroxy-1,3-dioxan-4-yl)-2-hydroxyethyl)-3,4-dihydroxy-2-(hydroxymethyl)tetrahydro-1H-selenophen-1-ium chloride] was tested, and the IC50 [1] was 620 ± 70 nM and the IC50 [2] was 870 ± 230 nM.
`OC[C@@H]1[C@@H](O)[C@H](O)C[Se@+]1C[C@@H](O)[C@H]1OC(c2ccccc2-c2ccccc2)OC[C@H]1O` (stereo partly drawn) [20r, (1S,2R,3S,4S)-1-((2S)-2-((4S,5R)-2-([1,1′-biphenyl]-2-yl)-5-hydroxy-1,3-dioxan-4-yl)-2-hydroxyethyl)-3,4-dihydroxy-2-(hydroxymethyl)tetrahydro-1H-selenophen-1-ium chloride] was tested, and the IC50 [1] was 2000 ± 520 nM and the IC50 [2] was 720 ± 170 nM.
For `OC[C@@H]1[C@@H](O)[C@H](O)C[Se@+]1C[C@@H](O)[C@H]1OC(c2cc(F)ccc2Cl)OC[C@H]1O` (stereo partly drawn) [20e, (1S,2R,3S,4S)-1-((2S)-2-((4S,5R)-2-(2-Chloro-5-fluorophenyl)-5-hydroxy-1,3-dioxan-4-yl)-2-hydroxyethyl)-3,4-dihydroxy-2-(hydroxymethyl)tetrahydro-1H-selenophen-1-ium chloride], the IC50 [1] was 450 ± 80 nM and the IC50 [2] was 410 ± 110 nM.
In the case of `OC[C@@H]1[C@@H](O)[C@H](O)C[Se@+]1C[C@@H](O)[C@H]1OC(c2cc(Cl)cc(Cl)c2)OC[C@H]1O` (stereo partly drawn) [20g, (1S,2R,3S,4S)-1-((2S)-2-((4S,5R)-2-(3,5-Dichlorophenyl)-5-hydroxy-1,3–dioxan-4-yl)-2-hydroxyethyl)-3,4-dihydroxy-2-(hydroxymethyl)tetrahydro-1H-selenophen-1-ium Chloride], the IC50 [1] is reported as 710 ± 210 nM and the IC50 [2] is reported as 220 ± 50 nM.
`OC[C@@H]1[C@@H](O)[C@H](O)C[Se@+]1C[C@@H](O)[C@H]1OC(c2ccc(Cl)c(Cl)c2)OC[C@H]1O` (stereo partly drawn) [20f, (1S,2R,3S,4S)-1-((2S)-2-((4S,5R)-2-(3,4-Dichlorophenyl)-5-hydroxy-1,3-dioxan-4-yl)-2-hydroxyethyl)-3,4-dihydroxy-2-(hydroxymethyl)tetrahydro-1H-selenophen-1-ium chloride] was tested, and the IC50 [1] was 470 ± 110 nM and the IC50 [2] was 330 ± 40 nM.
`OCC1C(O)C(O)C[S+]1CC(O)C1OC(c2cccc(Cl)c2Cl)OCC1O` [19a, 1,4-Dideoxy-1,4-[(R)-(5-deoxy-1,3-O-(2,3-dichlorobenzylidene)-D-arabinitol-5-yl)episulfoniumylidene]-D-arabinitol chloride] gave an IC50 [1] of 500 ± 80 nM and an IC50 [2, 3] of 1600 ± 430 nM.
With `OCC1C(O)C(O)C[S+]1CC(O)C1OC(c2cc(Cl)ccc2Cl)OCC1O` [19c, 1,4-Dideoxy-1,4-[(R)-(5-deoxy-1,3-O-(2,5-dichlorobenzylidene)-D-arabinitol-5-yl)episulfoniumylidene]-D-arabinitol chloride] the IC50 [1] was 550 ± 50 nM and the IC50 [2, 3] was 800 ± 120 nM.
In the case of `OCC1C(O)C(O)C[S+]1CC(O)C1OC(c2ccc(Cl)cc2Cl)OCC1O` [19b, 1,4-Dideoxy-1,4-[(R)-(5-deoxy-1,3-O-(2,4-dichlorobenzylidene)-D-arabinitol-5-yl)episulfoniumylidene]-D-arabinitol chloride], the IC50 [1] is reported as 2000 ± 80 nM and the IC50 [2, 3] is reported as 1200 ± 230 nM.
`O=[N+]([O-])c1ccc(F)cc1C1OCC(O)C(C(O)C[S+]2CC(O)C(O)C2CO)O1` [19j, 1,4-Dideoxy-1,4-[(R)-(5-deoxy-1,3-O-(5-fluoro-2-nitrobenzylidene)-D-arabinitol-5-yl)episulfoniumylidene]-D-arabinitol chloride] gave an IC50 [1] of 750 ± 80 nM and an IC50 [2, 3] of 1500 ± 210 nM.
`OCC1C(O)C(O)C[S+]1CC(O)C1OC(c2ccc(Cl)c(Cl)c2)OCC1O` [19f, 1,4-Dideoxy-1,4-[(R)-(5-deoxy-1,3-O-(3,4-dichlorobenzylidene)-D-arabinitol-5-yl)episulfoniumylidene]-D-arabinitol chloride] gave an IC50 [1] of 5000 ± 390 nM and an IC50 [2, 3] of 4600 ± 90 nM.
Compound `OCC1C(O)C(O)C[S+]1CC(O)C1OC(c2cc(C(F)(F)F)cc(C(F)(F)F)c2)OCC1O` [19i, 1,4-Dideoxy-1,4-[(R)-(5-deoxy-1,3-O-(3,5-bis(trifluoromethyl)benzylidene)-D-arabinitol-5-yl)episulfoniumylidene]-D-arabinitol chloride] has an IC50 [1] of 8900 ± 530 nM and an IC50 [2, 3] of 10000 ± 1800 nM.
Work on `N#Cc1ccccc1C1OCC(O)C(C(O)C[S+]2CC(O)C(O)C2CO)O1` [19p, 1,4-Dideoxy-1,4-[(R)-(5-deoxy-1,3-O-(o-cyanobenzyliden)-D-arabinitol-5-yl)episulfoniumylidene]-D-arabinitol chloride] yielded an IC50 [1] of 880 ± 40 nM and an IC50 [2, 3] of 900 ± 50 nM.
With `OC[C@@H]1[C@@H](O)[C@H](O)C[Se@+]1C[C@@H](O)[C@H]1OC(c2ccccc2Br)OC[C@H]1O` (stereo partly drawn) [20k, (1S,2R,3S,4S)-1-((2S)-2-((4S,5R)-2-(2-Bromophenyl)-5-hydroxy-1,3-dioxan-4-yl)-2-hydroxyethyl)-3,4-dihydroxy-2-(hydroxymethyl)tetrahydro-1H-selenophen-1-ium chloride] the IC50 [1] was 530 ± 220 nM and the IC50 [2] was 120 ± 50 nM.
`OC[C@@H]1[C@@H](O)[C@H](O)C[Se@+]1C[C@@H](O)[C@H]1OC(c2ccc(Cl)cc2Cl)OC[C@H]1O` (stereo partly drawn) [20b, (1S,2R,3S,4S)-1-((2S)-2-((4S,5R)-2-(2,4-Dichlorophenyl)-5-hydroxy-1,3-dioxan-4-yl)-2-hydroxyethyl)-3,4-dihydroxy-2-(hydroxymethyl)tetrahydro-1H-selenophen-1-ium chloride] gave an IC50 [1] of 260 ± 80 nM and an IC50 [2] of 220 ± 60 nM.
With `OC[C@@H]1[C@@H](O)[C@H](O)C[Se@+]1C[C@@H](O)[C@H]1OC(c2cc(C(F)(F)F)cc(C(F)(F)F)c2)OC[C@H]1O` (stereo partly drawn) [20i, (1S,2R,3S,4S)-1-((2S)-2-((4S,5R)-2-(3,5-Bis(trifluoromethyl)phenyl)-5-hydroxy-1,3-dioxan-4-yl)-2-hydroxyethyl)-3,4-dihydroxy-2-(hydroxymethyl)tetrahydro-1H-selenophen-1-ium chloride] the IC50 [1] was 1010 ± 320 nM and the IC50 [2] was 410 ± 110 nM.
`OCC1C(O)C(O)C[S+]1CC(O)C1OC(c2cc(F)cc(Cl)c2)OCC1O` [19h, 1,4-Dideoxy-1,4-[(R)-(5-deoxy-1,3-O-(3-chloro-5-fluorobenzylidene)-D-arabinitol5-yl)episulfoniumylidene]-D-arabinitol chloride] was tested, and the IC50 [1] was 850 ± 280 nM and the IC50 [2, 3] was 1400 ± 330 nM.
`OCC1C(O)C(O)C[S+]1CC(O)C1OC(c2ccc(Br)cc2)OCC1O` [19m, 1,4-Dideoxy-1,4-[(R)-(5-deoxy-1,3-O-(p-bromobenzylidene)-D-arabinitol-5-yl)episulfoniumylidene]-D-arabinitol chloride] was tested, and the IC50 [1] was 4100 ± 80 nM and the IC50 [2, 3] was 3500 ± 60 nM.
`OCC1C(O)C(O)C[S+]1CC(O)C1OC(c2cc(F)ccc2Cl)OCC1O` [19e, 1,4-Dideoxy-1,4-[(R)-(5-deoxy-1,3-O-(2-chloro-5-fluorobenzylidene)-D-arabinitol-5-yl)episulfoniumylidene]-D-arabinitol chloride] was tested, and the IC50 [2, 3] was 6600 ± 450 nM.
